Assay results reported in patent publication US9861096B2, “Biodegradable chemical delivery system” (Cornell University, priority 2008, dated 2018).

Experiment: Identification of Columbia Blue in release media by LC/MS (stability)
Type: physicochemical
Conditions: water at room temperature and PBS pH 7.4 at 37° C., 16 week release experiments
Procedure: The concentration of Columbia Blue was determined using Liquid Chromatography/Mass Spectroscopy (LC/MS) (Agilent Technologies 6130 Quadrupole LC/MS), and the Columbia Blue was identified using mass spectroscopy. The column used was a Restek Ultra C18, 5 μm, 250×4.6 mm. The mobile phase consisted of 60% acetonitrile and 40% water at a flow rate of 1.0 ml/min. The concentration was determined using UV detection at a wavelength of 374 nm.
A model pesticide, Columbia Blue, was chosen following Briggs's “rule of 3” (Briggs, G. G., Uptake of Agrochemicals & Pharmaceuticals ‘Predicting uptake & movement of agrochemicals from physical properties’, in SCI Meeting. 1997) and Clarke-Delaney's “guide of 2” (Clarke, E. D. and J. S. Delaney, Designing Drugs and Crop Protectants: Processes, Problems and Solutions, ed. D. L. M. Ford, J. Dearden, H. V. de Waterbeemd. 2003: Blackwell Publishing, Malden). During the release measurements, Columbia Blue was identified by the LC/MS. The retention time of Columbia Blue of HPLC spectrum remained unchanged at 9.8 minutes.

Columbia Blue
degradation of Columbia Blue in the release media: did not degrade
